Test results published in patent US9975852B2, “Quinoline sulfonyl derivatives and uses thereof” (Health Sciences North Research Institute, priority 2013, dated 2018).
Where two headings read alike, the source gives them in different places.

Legend:
MDA-MB231 = experiment: SRB antiproliferative assay, MDA-MB231; type: cell-based, human; details: Homo sapiens, MDA-MB-231, 48 h
Method: (§1) Antiproliferative effects were determined by a sulforhodamine B (SRB) based protocol. For a typical screening experiment, 5,000-10,000 cells were inoculated into 100 μl medium per well of a 96-well microtiter plate as described previously. […] Some of the sample wells were fixed with 25 μl of 50% trichloroacetic acid (TCA) as a control of the cell population for each cell line at the time of drug addition (Tz). An aliquot of the frozen stock was thawed and diluted to the desired final maximum test-concentration with complete medium. Two to ten-fold serial dilutions were made to provide a total of seven drug concentrations (and a control [C]). Following addition of drugs, the culture plate was incubated for additional 48 h. Cells were fixed in situ by slowly adding 25 μl of ice-cold 50% (w/v) TCA (final concentration, 10% TCA), and were then incubated for 60 min at 4° C. The supernatant was discarded, and the plate was washed five times with tap water, followed by air-dry. 50 μl of SRB solution at 0.4% (w/v) in 1% acetic acid was added to each well, and the plate was incubated for >30 min at room temperature. Unbound SRB was removed by five washes with tap water, followed by air-drying. […] The relative growth rate (%) was calculated for each of the compound concentrations according to the following formula: (Ti−Tz)/(C−Tz)×100 In the formula, time zero (Tz), control growth (C), and OD for different concentration of tested compounds (Ti). The GI50 for each compound was obtained from a non-linear Sigmoidal dose-response (variable slope) curve which is fitted by GraphPad Prism™ v.4.03 software. Values were calculated for each of these parameters if the level of activity was reached. However, if the effect was not reached or was exceeded, the value for that parameter was expressed as greater or less than the maximum or minimum concentration tested. Flow Cytometry

MDA-MB468 = experiment: SRB antiproliferative assay, MDA-MB468; type: cell-based, human; details: Homo sapiens, MDA-MB-468, 48 h
Method: as §1

MCF7 = experiment: SRB antiproliferative assay, MCF7; type: cell-based, human; details: Homo sapiens, MCF7; SRB, 48 h; read-out: GI50 MCF7
Method: as §1

184B5 = experiment: SRB antiproliferative assay, 184B5 non-cancer breast cells; type: cell-based, human; details: Homo sapiens, read-out: GI50 184B5
Method: as §1

Row | Compound | GI50 (MDA-MB231) [µM] | GI50 (MDA-MB468) [µM] | GI50 (MCF7) [µM] | GI50 (184B5; 184B5, SRB, 48 h) [µM] | melting point [°C] | GI50 (184B5; 184B5, 48 h) [µM]
1 | O=S(=O)(c1ccc(Cl)cc1Cl)N1CCN(c2ccnc3cc(Cl)ccc23)CC1 [Compound 5, 7-Chloro-4-(4-(2,4-dichlorophenylsulfonyl)piperazin-1-yl)quinoline] | 40.6 ± 0.81 | 21.6 ± 0.61 | 13.5 ± 0.23 | 12.4 ± 0.15 | 145 to 147 | 
2 | CS(=O)(=O)NCCCNc1ccnc2cc(C(F)(F)F)ccc12 [Compound 23, N-[3-(7-Trifluoromethyl-quinolin-4-ylamino)-propyl]-methanesulfonamide] | 55.9 ± 1.56 | 30.4 ± 0.99 | 25.3 ± 1.23 | 59.5 ± 1.56 | 171 to 173 | 
3 | O=S(=O)(c1ccc(-c2ccccc2)cc1)N1CCN(c2ccnc3cc(C(F)(F)F)ccc23)CC1 [Compound 9, 4-[4-(Biphenyl-4-sulfonyl)-piperazin-1-yl]-7-trifluoromethyl-quinoline] | 27.2 ± 0.61 | 20.5 ± 0.54 | 14.8 ± 0.19 | 19.1 ± 0.24 | 148 to 150 | 
4 | CS(=O)(=O)NCCCNc1ccnc2cc(Cl)ccc12 [Compound 15, N-[3-(7-Chloro-quinolin-4-ylamino)-propyl]-methanesulfonamide] | 40.9 ± 1.52 | 28.6 ± 1.03 | 23.1 ± 0.87 | 23.3 ± 0.92 |  | 
5 | O=S(=O)(NCCCNc1ccnc2cc(C(F)(F)F)ccc12)c1ccc(-c2ccccc2)cc1 [Compound 29, Biphenyl-4-sulfonic acid [3-(7-trifluoromethyl-quinolin-4-ylamino)-propyl]-amide] | 6.03 ± 0.38 | 4.19 ± 0.23 | 3.6 ± 0.27 | 2.82 ± 0.05 | 110 to 112 | 
6 | O=[N+]([O-])c1cccc(S(=O)(=O)NCCCNc2ccnc3cc(C(F)(F)F)ccc23)c1 [Compound 26, 3-Nitro-N-[3-(7-trifluoromethyl-quinolin-4-ylamino)-propyl]-benzenesulfonamide] | 15.8 ± 0.95 | 9.09 ± 0.57 | 8.25 ± 0.52 | 8.01 ± 0.76 | 98 to 100 | 
7 | CN(C)c1cccc2c(S(=O)(=O)N3CCN(c4ccnc5cc(C(F)(F)F)ccc45)CC3)cccc12 [Compound 13, Dimethyl-{5-[4-(7-trifluoromethyl-quinolin-4-yl)-piperazine-1-sulfonyl]-naphthalen-1-yl}-amine] | 22 ± 0.59 | 19 ± 0.55 | 12.8 ± 0.21 | 12 ± 0.15 | 98 to 100 | 
8 | COC(=O)c1sccc1S(=O)(=O)NCCCNc1ccnc2cc(C(F)(F)F)ccc12 [Compound 31, N-(3-(7-Trifluoromethyl-quinolin-4-ylamino)propyl)thiophene-3-sulfonamide-2-carbomethoxy ester] | 7.48 ± 0.63 | 4.55 ± 0.25 | 4.33 ± 0.23 | 12.1 ± 0.45 | 137 to 139 | 
9 | O=[N+]([O-])c1ccc(S(=O)(=O)NCCCNc2ccnc3cc(C(F)(F)F)ccc23)c([N+](=O)[O-])c1 [Compound 25, 2,4-Dinitro-N-[3-(7-trifluoromethyl-quinolin-4-ylamino)-propyl]-benzenesulfonamide] | 8.91 ± 0.77 | 8.46 ± 0.41 | 5.56 ± 0.34 |  | 198 to 200 | 15.9 ± 0.89
10 | CS(=O)(=O)N1CCN(c2ccnc3cc(C(F)(F)F)ccc23)CC1 [Compound 11, 4-(4-Methanesulfonyl-piperazin-1-yl)-7-trifluoromethyl-quinoline] | 44.4 ± 0.85 | 28.6 ± 0.69 | 25.6 ± 0.26 | 93.93 ± 0.89 | 116 to 118 | 
11 | O=S(=O)(NCCCNc1ccnc2cc(C(F)(F)F)ccc12)c1ccc(Cl)cc1 [Compound 27, 4-Chloro-N-[3-(7-trifluoromethyl-quinolin-4-ylamino)-propyl]-benzenesulfonamide] | 12.8 ± 0.88 | 10.3 ± 0.56 | 5.44 ± 0.34 | 7.63 ± 0.43 | 70 to 72 | 
12 | O=[N+]([O-])c1cccc(S(=O)(=O)N2CCN(c3ccnc4cc(C(F)(F)F)ccc34)CC2)c1 [Compound 6, 4-[4-(3-Nitro-benzenesulfonyl)-piperazin-1-yl]-7-trifluoromethyl-quinoline] | 32.2 ± 0.68 | 18.6 ± 0.57 | 9.44 ± 0.25 | 17.7 ± 0.21 | 199 to 201 | 
13 | O=[N+]([O-])c1cccc(S(=O)(=O)NCCCNc2ccnc3cc(Cl)ccc23)c1 [Compound 18, N-(3-(7-Chloroquinolin-4-ylamino)propyl)-3-nitrobenzenesulfonamide] | 20.4 ± 1.15 | 9.21 ± 0.65 | 8.62 ± 0.38 | 15.8 ± 0.88 |  | 
14 | COC(=O)c1sccc1S(=O)(=O)N1CCN(c2ccnc3cc(C(F)(F)F)ccc23)CC1 [Compound 14, 3-[4-(7-Trifluoromethyl-quinolin-4-yl)-piperazine-1-sulfonyl]-thiophene-2-carboxylic acid methyl ester] | 34.7 ± 0.71 | 23.9 ± 0.64 | 16 ± 0.24 | 15.88 ± 0.14 | 117 to 119 | 
15 | O=S(=O)(c1ccc(Cl)cc1Cl)N1CCN(c2ccnc3cc(C(F)(F)F)ccc23)CC1 [Compound 10, 4-[4-(2,4-Dichloro-benzenesulfonyl)-piperazin-1-yl]-7-trifluoromethyl-quinoline] | 20.3 ± 0.53 | 18.6 ± 0.55 | 16.7 ± 0.19 | 20.4 ± 0.23 | 137 to 139 | 
16 | O=[N+]([O-])c1ccc(S(=O)(=O)N2CCN(c3ccnc4cc(C(F)(F)F)ccc34)CC2)c([N+](=O)[O-])c1 [Compound 12, 4-[4-(2,4-Dinitro-benzenesulfonyl)-piperazin-1-yl]-7-trifluoromethyl-quinoline] | 24.3 ± 0.63 | 19.2 ± 0.61 | 10.8 ± 0.12 |  | 178 to 180 | 37.78 ± 0.35
17 | Cc1ccc(S(=O)(=O)NCCCNc2ccnc3cc(C(F)(F)F)ccc23)cc1 [Compound 24, 4-Methyl-N-[3-(7-trifluoromethyl-quinolin-4-ylamino)-propyl]-benzenesulfonamide] | 6.36 ± 0.48 | 6.21 ± 0.42 | 6.9 ± 0.45 | 12.2 ± 0.86 | 77 to 79 | 
18 | O=S(=O)(NCCCNc1ccnc2cc(C(F)(F)F)ccc12)c1ccc(Cl)cc1Cl [Compound 30, 2,4-Dichloro-N-[3-(7-trifluoromethyl-quinolin-4-ylamino)-propyl]-benzenesulfonamide] | 6.97 ± 0.54 | 3.94 ± 0.12 | 5.18 ± 0.29 | 3.22 ± 0.08 | 117 to 119 | 
19 | COC(=O)c1sccc1S(=O)(=O)N1CCN(c2ccnc3cc(Cl)ccc23)CC1 [Compound 2, Methyl 3-(4-(7-chloroquinolin-4-yl)piperazin-1-ylsulfonyl)thiophene-2-carboxylate] | 40.4 ± 0.82 | 30.2 ± 0.71 | 22.37 ± 0.21 | 15.2 ± 0.18 | 117 to 119 | 
20 | O=S(=O)(NCCCNc1ccnc2cc(Cl)ccc12)c1ccc(Cl)cc1Cl [Compound 21, 2,4-Dichloro-N-[3-(7-chloro-quinolin-4-ylamino)-propyl]-benzenesulfonamide] | 6.76 ± 0.55 | 3.61 ± 0.12 | 4.04 ± 0.22 | 3.55 ± 0.21 | 145 to 147 | 
21 | O=S(=O)(c1ccc(Cl)cc1)N1CCN(c2ccnc3cc(C(F)(F)F)ccc23)CC1 [Compound 7, 4-[4-(4-Chloro-benzenesulfonyl)-piperazin-1-yl]-7-trifluoromethyl-quinoline] | 41.4 ± 0.83 | 34.9 ± 0.78 | 27.36 ± 0.27 |  | 144 to 146 | 
22 | Cc1ccc(S(=O)(=O)NCCCNc2ccnc3cc(Cl)ccc23)cc1 [Compound 16, N-[3-(7-Chloro-quinolin-4-ylamino)-propyl]-4-methyl-benzenesulfonamide] | 6.16 ± 0.51 | 5.77 ± 0.41 | 5.25 ± 0.45 | 9.56 ± 0.53 |  | 
23 | O=S(=O)(NCCCNc1ccnc2cc(Cl)ccc12)c1ccc(Cl)cc1 [Compound 19, 4-Chloro-N-(3-(7-chloroquinolin-4-ylamino)propyl)benzenesulfonamide] | 11.8 ± 0.91 | 8.34 ± 0.73 | 4.31 ± 0.32 | 6.36 ± 0.34 |  | 
24 | CN(C)c1cccc2c(S(=O)(=O)N3CCN(c4ccnc5cc(Cl)ccc45)CC3)cccc12 [Compound 4, 5-(4-(7-Chloroquinolin-4-yl)piperazin-1-ylsulfonyl)-N,N-dimethylnaphthalen-1-amine] | 35 ± 0.76 | 27.5 ± 0.66 |  | 28.25 ± 0.26 | 145 to 147 | 
